Experimental findings from patent US20110218506A1, “AMOROLFINE PATCH FOR THE TREATMENT OF ONYCHOMYCOSIS” (Galderma Research & Development, priority 2004, published 2011) are described below.

The data set in a line: Solubility in formulation solvents. Format: physicochemical.

Molecules are shown by their SMILES. Counter-ions that a name gives are not always drawn.

Turning to `O=C1CCCCCCCCCCCCCCO1` [Exaltolide], where the note is “ethyl acetate”, the “solubility in ethyl acetate” value was “highly soluble”.

For the compound `CCC(C)(C)c1ccc(CC(C)CN2C[C@@H](C)O[C@@H](C)C2)cc1` (stereo partly drawn) [amorolfine HCl, hydrochloride of the cis-4-[3-[4-(1,1-dimethyl-propyl)phenyl]-2-methylpropyl]-2,6-dimethyl-morpholine], where the note is “ethanol”, the solubility in ethanol result is listed as “particularly soluble”.
